Source: US12077503B2, “Substituted cyclic amides and their use as herbicides” (FMC CORPORATION, priority 2015, dated 2024)

How the values were obtained:
Type in all cases: in vivo
[1] = tested on: barnyardgrass (Echinochloa crus-galli); experiment: Test G Pre-Emergence Protocol; conditions: Echinochloa crus-galli, pre-emergence, 312 h, evaluated after 13 days; for pest or weed control at 15.625 g/ha: 15.625 g ai/ha; for pest or weed control at 15.625 g/ha / pest or weed control at 250 g/ha: read-out: Barnyardgrass damage rating (100=total damage to plant; 0=no damage to plant); for pest or weed control at 62.5 g/ha: 62.5 g ai/ha, 100=total damage to plant, 0=no damage to plant, read-out: Barnyardgrass damage rating; for pest or weed control at 250 g/ha: 250 g ai/ha
Method in brief: (§1)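 One day after sowing, pots are treated with a spray of test compound formulated in acetone/water 50:50 plus 0.5% Tween 20, giving 15.625, 62.5 or 250 g/ha. Evaluation on a 0–100 damage scale follows 13 days of glasshouse growth.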

[2] = tested on: redroot pigweed (Amaranthus retroflexus); experiment: Test G Pre-Emergence Protocol; conditions: Amaranthus retroflexus, pre-emergence, 312 h, evaluated after 13 days; for pest or weed control at 15.625 g/ha: 15.625 g ai/ha; for pest or weed control at 15.625 g/ha / pest or weed control at 250 g/ha: read-out: Pigweed, Redroot damage rating (100=total damage to plant; 0=no damage to plant); for pest or weed control at 62.5 g/ha: 62.5 g ai/ha, 100=total damage to plant, 0=no damage to plant, read-out: Pigweed, Redroot damage rating; for pest or weed control at 250 g/ha: 250 g ai/ha
Method in brief: as §1

[3] = tested on: ivy-leaved morning glory (Ipomoea hederacea); experiment: Test G Pre-Emergence Protocol; conditions: Ipomoea, pre-emergence, 312 h, evaluated after 13 days; for pest or weed control at 15.625 g/ha: 15.625 g ai/ha; for pest or weed control at 15.625 g/ha / pest or weed control at 250 g/ha: read-out: Morningglory, Ivy-leaved damage rating (100=total damage to plant; 0=no damage to plant); for pest or weed control at 62.5 g/ha: 62.5 g ai/ha, 100=total damage to plant, 0=no damage to plant, read-out: Morningglory, Ivy-leaved damage rating; for pest or weed control at 250 g/ha: 250 g ai/ha
Method in brief: as §1

[4] = tested on: velvetleaf (Abutilon theophrasti); experiment: Test G Pre-Emergence Protocol; conditions: Abutilon theophrasti, pre-emergence, 312 h, evaluated after 13 days; for pest or weed control at 15.625 g/ha: 15.625 g ai/ha; for pest or weed control at 15.625 g/ha / pest or weed control at 250 g/ha: read-out: Velvetleaf damage rating (100=total damage to plant; 0=no damage to plant); for pest or weed control at 62.5 g/ha: 62.5 g ai/ha, 100=total damage to plant, 0=no damage to plant, read-out: Velvetleaf damage rating; for pest or weed control at 250 g/ha: 250 g ai/ha
Method in brief: as §1

[5] = tested on: giant foxtail (Setaria faberi); experiment: Test G Pre-Emergence Protocol; conditions: Setaria faberi, pre-emergence, 312 h, evaluated after 13 days; for pest or weed control at 15.625 g/ha: 15.625 g ai/ha; for pest or weed control at 15.625 g/ha / pest or weed control at 250 g/ha: read-out: Foxtail, Giant damage rating (100=total damage to plant; 0=no damage to plant); for pest or weed control at 62.5 g/ha: 62.5 g ai/ha, 100=total damage to plant, 0=no damage to plant, read-out: Foxtail, Giant damage rating; for pest or weed control at 250 g/ha: 250 g ai/ha
Method in brief: as §1

[6] = tested on: corn (Zea mays); experiment: Test G Pre-Emergence Protocol; conditions: Zea mays, pre-emergence, 312 h, evaluated after 13 days; for plant injury at 15.625 g/ha: 15.625 g ai/ha; for plant injury at 15.625 g/ha / plant injury at 250 g/ha: read-out: Corn damage rating (100=total damage to plant; 0=no damage to plant); for plant injury at 62.5 g/ha: 62.5 g ai/ha, 100=total damage to plant, 0=no damage to plant, read-out: Corn damage rating; for plant injury at 250 g/ha: 250 g ai/ha
Method in brief: as §1

[7] = tested on: barnyardgrass (Echinochloa crus-galli); experiment: Test G Post-Emergence Protocol; conditions: Echinochloa crus-galli, post-emergence, 312 h, read-out: Barnyardgrass damage rating; for pest or weed control at 15.625 g/ha: 15.625 g ai/ha, evaluated after 13 days (100=total damage to plant; 0=no damage to plant); for pest or weed control at 62.5 g/ha: 62.5 g ai/ha; for pest or weed control at 62.5 g/ha / pest or weed control at 250 g/ha: evaluated after 13 days, 100=total damage to plant, 0=no damage to plant; for pest or weed control at 250 g/ha: 250 g ai/ha
Method in brief: (§2)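 Post-emergence herbicidal damage, scored visually 0–100 at 13 days. Application at 15.625, 62.5 or 250 g/ha onto 8-day-old plants grown under glasshouse control.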

[8] = tested on: redroot pigweed (Amaranthus retroflexus); experiment: Test G Post-Emergence Protocol; conditions: Amaranthus retroflexus, post-emergence, 312 h, read-out: Pigweed, Redroot damage rating; for pest or weed control at 15.625 g/ha: 15.625 g ai/ha, evaluated after 13 days (100=total damage to plant; 0=no damage to plant); for pest or weed control at 62.5 g/ha: 62.5 g ai/ha; for pest or weed control at 62.5 g/ha / pest or weed control at 250 g/ha: evaluated after 13 days, 100=total damage to plant, 0=no damage to plant; for pest or weed control at 250 g/ha: 250 g ai/ha
Method in brief: as §2

[9] = tested on: ivy-leaved morning glory (Ipomoea hederacea); experiment: Test G Post-Emergence Protocol; conditions: Ipomoea, post-emergence, 312 h, read-out: Morningglory, Ivy-leaved damage rating; for pest or weed control at 15.625 g/ha: 15.625 g ai/ha, evaluated after 13 days (100=total damage to plant; 0=no damage to plant); for pest or weed control at 62.5 g/ha: 62.5 g ai/ha; for pest or weed control at 62.5 g/ha / pest or weed control at 250 g/ha: evaluated after 13 days, 100=total damage to plant, 0=no damage to plant; for pest or weed control at 250 g/ha: 250 g ai/ha
Method in brief: as §2

[10] = tested on: velvetleaf (Abutilon theophrasti); experiment: Test G Post-Emergence Protocol; conditions: Abutilon theophrasti, post-emergence, 312 h, read-out: Velvetleaf damage rating; for pest or weed control at 15.625 g/ha: 15.625 g ai/ha, evaluated after 13 days (100=total damage to plant; 0=no damage to plant); for pest or weed control at 62.5 g/ha: 62.5 g ai/ha; for pest or weed control at 62.5 g/ha / pest or weed control at 250 g/ha: evaluated after 13 days, 100=total damage to plant, 0=no damage to plant; for pest or weed control at 250 g/ha: 250 g ai/ha
Method in brief: as §2

[11] = tested on: giant foxtail (Setaria faberi); experiment: Test G Post-Emergence Protocol; conditions: Setaria faberi, post-emergence, 312 h, read-out: Foxtail, Giant damage rating; for pest or weed control at 15.625 g/ha: 15.625 g ai/ha, evaluated after 13 days (100=total damage to plant; 0=no damage to plant); for pest or weed control at 62.5 g/ha: 62.5 g ai/ha; for pest or weed control at 62.5 g/ha / pest or weed control at 250 g/ha: evaluated after 13 days, 100=total damage to plant, 0=no damage to plant; for pest or weed control at 250 g/ha: 250 g ai/ha
Method in brief: as §2

[12] = tested on: corn (Zea mays); experiment: Test G Post-Emergence Protocol; conditions: Zea mays, post-emergence, 312 h, read-out: Corn damage rating; for plant injury at 15.625 g/ha: 15.625 g ai/ha, evaluated after 13 days (100=total damage to plant; 0=no damage to plant); for plant injury at 62.5 g/ha: 62.5 g ai/ha; for plant injury at 62.5 g/ha / plant injury at 250 g/ha: evaluated after 13 days, 100=total damage to plant, 0=no damage to plant; for plant injury at 250 g/ha: 250 g ai/ha
Method in brief: as §2

SMILES | pest or weed control at 15.625 g/ha [1] [%] | pest or weed control at 62.5 g/ha [1] [%] | pest or weed control at 250 g/ha [1] [%] | pest or weed control at 15.625 g/ha [2] [%] | pest or weed control at 62.5 g/ha [2] [%] | pest or weed control at 250 g/ha [2] [%] | pest or weed control at 15.625 g/ha [3] [%] | pest or weed control at 62.5 g/ha [3] [%] | pest or weed control at 250 g/ha [3] [%] | pest or weed control at 15.625 g/ha [4] [%] | pest or weed control at 62.5 g/ha [4] [%] | pest or weed control at 250 g/ha [4] [%] | pest or weed control at 15.625 g/ha [5] [%] | pest or weed control at 62.5 g/ha [5] [%] | pest or weed control at 250 g/ha [5] [%] | plant injury at 15.625 g/ha [6] [%] | plant injury at 62.5 g/ha [6] [%] | plant injury at 250 g/ha [6] [%] | pest or weed control at 15.625 g/ha [7] [%] | pest or weed control at 62.5 g/ha [7] [%] | further results
CN1C[C@H](c2cc(C(F)(F)F)cc(C(F)(F)F)c2)[C@@H](C(=O)Nc2ccccc2S(C)(=O)=O)C1=O (racemic) [Compound 1794] | 0 | 40 | 80 | 0 | 0 | 80 | 0 | 0 | 10 | 0 | 0 | 0 | 30 | 60 | 90 | 30 | 50 | 80 | 0 | 40 | pest or weed control at 250 g/ha [7]: 70%; pest or weed control at 15.625 g/ha [8]: 0%; pest or weed control at 62.5 g/ha [8]: 40%; pest or weed control at 250 g/ha [8]: 70%; pest or weed control at 15.625 g/ha [9]: 20%; pest or weed control at 62.5 g/ha [9]: 50%; pest or weed control at 250 g/ha [9]: 70%; pest or weed control at 15.625 g/ha [10]: 0%; pest or weed control at 62.5 g/ha [10]: 0%; pest or weed control at 250 g/ha [10]: 10%; pest or weed control at 15.625 g/ha [11]: 0%; pest or weed control at 62.5 g/ha [11]: 60%; pest or weed control at 250 g/ha [11]: 80%; plant injury at 15.625 g/ha [12]: 20%; plant injury at 62.5 g/ha [12]: 50%; plant injury at 250 g/ha [12]: 70%
CC1OC(=O)c2c(NC(=O)[C@H]3C(=O)N(C)C[C@@H]3c3ccc(C(F)(F)F)cc3)cccc21 (mixture of isomers) [Compound 1670] | 0 | 0 | 0 | 0 | 0 | 20 | 0 | 0 | 0 | 0 | 0 | 0 | 0 | 20 | 50 | 0 | 0 | 0 | 0 | 20 | pest or weed control at 250 g/ha [7]: 60%; pest or weed control at 15.625 g/ha [8]: 0%; pest or weed control at 62.5 g/ha [8]: 20%; pest or weed control at 250 g/ha [8]: 90%; pest or weed control at 15.625 g/ha [9]: 0%; pest or weed control at 62.5 g/ha [9]: 0%; pest or weed control at 250 g/ha [9]: 0%; pest or weed control at 15.625 g/ha [10]: 0%; pest or weed control at 62.5 g/ha [10]: 0%; pest or weed control at 250 g/ha [10]: 0%; pest or weed control at 15.625 g/ha [11]: 0%; pest or weed control at 62.5 g/ha [11]: 70%; pest or weed control at 250 g/ha [11]: 80%; plant injury at 15.625 g/ha [12]: 0%; plant injury at 62.5 g/ha [12]: 0%; plant injury at 250 g/ha [12]: 10%
